We go through 24 compounds from ChEMBL document CHEMBL4706648, “Antitubercular 2-Pyrazolylpyrimidinones: Structure-Activity Relationship and Mode-of-Action Studies” (J Med Chem, 2021).

Converted amounts (≈) assume the structure as drawn. The source made the active and inactive calls. No cut-off for these calls is given here. Bounds are passed on as bounds.

For one data set, the system named is CHO. As to the kind of experiment: Cytotoxicity against CHO cells assessed as reduction in cell viability by MTT assay. It is filed as cell-based. The conditions noted are these: Cricetulus griseus.
Data set [1] has as its system Mycobacterium tuberculosis. It is filed as functional. As to conditions: H37Rv, 168 h, time 7 day.
The nature of data set [2]: Aqueous solubility of compound at pH 7.4. It is filed as physicochemical.
Data set [3] relates to Mycobacterium tuberculosis. As to the kind of experiment: Bactericidal activity against Mycobacterium tuberculosis H37Rv assessed as reduction in CFU grown under middlebrook 7H9/OADC-Glycerol-Tween80 medium at 1 to 2 times MIC incubated for 7 days. Type of data set: functional. As to conditions: time 7 day.
Data set [4] is described as follows: Kinetic solubility of compound at 200 uM at pH 7.4 measured after 20 hrs by HPLC-DAD analysis. It is filed as physicochemical. As to conditions: buffer, pH 7.4, 20 h.
The nature of data set [5]: Protein binding in human plasma assessed as unbound fraction at 5 uM incubated for 1 hr at 37 degreeC and measured after 4 hrs by ultracentrifugation based LC-MS/MS analysis. It is filed as ADME, cell-free. The conditions noted are these: 5 h.
For data set [6], the system named is Mycobacterium tuberculosis. Kind of data set: Antimycobacterial activity against mmpL3 gene silenced Mycobacterium tuberculosis H37Rv assessed as inhibition of bacterial growth grown under middlebrook 7H9 medium incubated for 7 days by alamar blue broth microdilution method. As to conditions: time 7.0 day. It is filed as functional, organism-based.
Data set [7] relates to Mycobacterium tuberculosis. As to the kind of experiment: Antimycobacterial activity against wild-type Mycobacterium tuberculosis H37Rv assessed as inhibition of bacterial growth grown under middlebrook 7H9 medium incubated for 7 days by alamar blue broth microdilution method. Type of data set: functional. As to conditions: 168 h, time 7 day.
Another data set relates to Vero. As to the kind of experiment: Cytotoxicity against African green monkey Vero cells assessed as reduction in cell viability by MTT assay. It is filed as cell-based. As to conditions: Chlorocebus sabaeus. A general note: Tetrazolium assays rely on reduction of a dye to a coloured formazan, in cell work by metabolically active cells.

Usually IC50 stands for the point on the concentration scale where inhibition reaches its midpoint. The MIC is the lowest concentration that inhibits growth of the organism. The term solubility denotes the dissolved amount per volume that the medium holds. As for `Cc1cc(C)n(-c2nc(-c3ccc(F)cc3)c(C(=O)O)c(=O)[nH]2)n1`, in the data set with CHO, the IC50 was greater than 50 µM. Also, in [1], the MIC was greater than 50 µM. In data set [2] (buffer), this compound gave a solubility of 190 µM (≈ 62.4 µg/mL).

For the compound `CCNc1cc(C)nn1-c1nc(C(F)(F)F)cc(=O)[nH]1`, the IC50 with CHO turned out to be 8 µM. In [1], this compound yielded a minimum inhibitory concentration (MIC) of 6.25 µM (≈ 1.8 µg/mL). The compound also returned a solubility in data set [2] (buffer) of 85 µM (≈ 24.4 µg/mL).

`Cc1cc(C)n(-c2nc(-c3cccnc3)cc(=O)[nH]2)n1`: the IC50 in the data set on CHO was greater than 50 µM. This compound had an MIC in [1] of 50 µM (≈ 13.4 µg/mL). In addition, the solubility in data set [2] (aqueous, read-out: solubility) amounted to 200 µM (≈ 53.5 µg/mL).

`Cc1cc(C)n(-c2cc(=O)cc(-c3ccccc3)[nH]2)n1`: the half-inhibitory concentration (IC50) in the data set with CHO was greater than 50 µM. This compound gave an MIC in data set [1] greater than 50 µM. The solubility in data set [2] (buffer) was determined as 120 µM (≈ 31.8 µg/mL).

On to `CNC(=O)c1ccc(-c2cc(=O)[nH]c(-n3nc(C)cc3C)n2)cc1`, for which, in the data set with CHO, the IC50 is greater than 50 µM. This compound also yielded an MIC in [1] greater than 50 µM. This compound gave a solubility in [2] (buffer) of 70 µM (≈ 22.6 µg/mL).

Regarding `Cc1cc(C)n(-c2nc(C(=O)Nc3ccc(F)cc3)cc(=O)[nH]2)n1`, in the data set on CHO, the 50% inhibitory concentration (IC50) was greater than 50 µM. Further, in data set [1], 25 µM (≈ 8.18 µg/mL) was the least that counted as inhibitory (MIC). For the same compound, the solubility in [2] (aqueous, read-out: solubility) worked out at 200 µM (≈ 65.5 µg/mL).

`Cc1cc(C(=O)N(C)C)nn1-c1nc(-c2ccc(F)cc2)cc(=O)[nH]1` yielded an MIC in data set [1] greater than 50 µM. The solubility in data set [2] (buffer) was 65 µM (≈ 22.2 µg/mL).

Turning to `Cn1ccnc1-c1nc(-c2ccccc2)cc(=O)[nH]1`, the IC50 in the data set with CHO was 4 µM. In data set [1], this compound returned an MIC of 20 µM (≈ 5.05 µg/mL). Besides, in [2] (aqueous, read-out: solubility), the solubility was found to be 200 µM (≈ 50.5 µg/mL).

For the compound `Cc1cc(C)n(-c2nc(-c3ccc(F)cc3)cc(=O)[nH]2)n1`, the IC50 in the data set with CHO was found to be 4 µM. In data set [1], the MIC was found to be 1.2 µM (≈ 0.341 µg/mL). This compound also registered a solubility in data set [2] (buffer) of 35 µM (≈ 9.95 µg/mL).

For the compound `Cc1cc(C)n(-c2nc(-c3ccc(F)cc3)c(C#N)c(=O)[nH]2)n1`, the IC50 in the data set with CHO is greater than 50 µM. This compound yielded an MIC in data set [1] greater than 50 µM. The compound further gave a solubility in [2] (buffer) of 30 µM (≈ 9.28 µg/mL).

`CO[C@H]1/C=C/O[C@@]2(C)Oc3c(C)c(O)c4c(O)c(c(/C=N/N5CCN(C)CC5)c(O)c4c3C2=O)NC(=O)/C(C)=C\C=C\[C@H](C)[C@H](O)[C@@H](C)[C@@H](O)[C@@H](C)[C@H](OC(C)=O)[C@@H]1C` [RIFAMPIN]: the Activity in [3] amounted to 2 log10CFU.

For `Cc1nn(-c2nc(C(F)(F)F)cc(=O)[nH]2)c(C)c1N1CCOCC1`, the Kinetic_solubility in data set [4] was 160 µM. In addition, the IC50 with CHO was greater than 50 µM. Moreover, the MIC in data set [1] was determined as 6.25 µM (≈ 2.15 µg/mL). Further, in data set [2] (buffer), the solubility was determined as 160 µM (≈ 54.9 µg/mL). Further, the Fu in data set [5] is reported as 0.03.

For `COCCNc1cc(C)nn1-c1nc(C(F)(F)F)cc(=O)[nH]1`, the IC50 in the data set on CHO turned out to be 17 µM. The MIC stood at 2 µM (≈ 0.635 µg/mL) in data set [1] and 1.2 µM (≈ 0.381 µg/mL) in data set [7]. Moreover, the result in [6] was Active. Moreover, in [2] (aqueous, read-out: solubility), the solubility worked out at 200 µM (≈ 63.5 µg/mL).

Turning to `Cc1cc(Nc2ccc(C(=O)N(C)C)cc2)n(-c2nc(C(F)(F)F)cc(=O)[nH]2)n1`, the minimal inhibitory concentration (MIC) in data set [1] was greater than 50 µM. The solubility in data set [2] (aqueous, read-out: solubility) was found to be 200 µM (≈ 81.3 µg/mL).

Take `Cc1cc(N)n(-c2nc(C(F)(F)F)cc(=O)[nH]2)n1`: the IC50 with CHO was determined as 120 µM. In addition, it took 20 µM (≈ 5.18 µg/mL) to inhibit growth in [1] (MIC). The solubility in data set [2] (aqueous, read-out: solubility) stood at 200 µM (≈ 51.8 µg/mL).

Consider `Cc1cc(Nc2ccncc2)n(-c2nc(C(F)(F)F)cc(=O)[nH]2)n1`, for which the MIC in [1] was greater than 50 µM. For the same compound, in [2] (buffer), the solubility is 20 µM (≈ 6.73 µg/mL).

Regarding `Cc1cc(C)n(-c2nc(-c3ccc(S(C)(=O)=O)cc3)cc(=O)[nH]2)n1`, the IC50 with CHO is greater than 50 µM. The same compound displayed an MIC in data set [1] greater than 50 µM. The compound further gave a solubility in data set [2] (buffer) of 8 µM (≈ 2.76 µg/mL).

For `Cc1cc(C2CC2)n(-c2nc(C(F)(F)F)cc(=O)[nH]2)n1`, in the data set on CHO, the IC50 was found to be 78 µM. The MIC in data set [1] turned out to be 12 µM (≈ 3.41 µg/mL). In data set [2] (buffer), this compound displayed a solubility of 160 µM (≈ 45.5 µg/mL).

In data set [1], `Cc1cc(C)n(-c2nc(-c3ccccc3)cc(=O)n2C)n1` came in with a minimal inhibitory concentration (MIC) greater than 50 µM. For the same compound, the solubility in [2] (aqueous, read-out: solubility) stood at 200 µM (≈ 56.1 µg/mL). Besides, the IC50 in the data set with Vero was determined as 357 µM.

In turn, `Cc1cc(O)nc(-n2nc(C)cc2C)n1` returned an MIC in data set [1] of 30 µM (≈ 6.13 µg/mL). The compound further displayed a solubility in data set [2] (buffer) of 180 µM (≈ 36.8 µg/mL). In addition, the IC50 in the data set with Vero was 325 µM.

As for `Cc1cc(=O)n(-c2nc(-c3ccccc3)cc(=O)[nH]2)[nH]1`, the MIC in data set [1] was greater than 125 µM. In data set [2] (aqueous, read-out: solubility), the solubility came out at 190 µM (≈ 51 µg/mL).

Consider `Cc1nn(-c2nc(C(F)(F)F)cc(=O)[nH]2)c(C)c1-c1cccnc1`, for which the MIC in [1] was greater than 50 µM. In addition, the solubility in [2] (buffer) came to 195 µM (≈ 65.4 µg/mL).

Regarding `COc1cc(-c2ccccc2)nc(-n2nc(C)cc2C)n1`, in the data set with CHO, the IC50 is greater than 50 µM. The same compound showed an MIC in data set [1] greater than 50 µM. In addition, the solubility in [2] (aqueous, read-out: solubility) came out at 200 µM (≈ 56.1 µg/mL).

Turning to `CCOc1cc(C)nn1-c1nc(C(F)(F)F)cc(=O)[nH]1`, the IC50 with CHO is greater than 50 µM. The compound also had an MIC in data set [1] of 25 µM (≈ 7.21 µg/mL). The compound further had a solubility in data set [2] (buffer) of 120 µM (≈ 34.6 µg/mL).
